# Results taken from US20240287138A1, “CYCLIC PEPTIDES FOR INHIBITING TNF RECEPTOR 1 ACTIVITY” (Merck Sharp & Dohme LLC, priority 2023, published 2024).
# Read-outs that look alike come from different tables or passages of the source. Numbered stars: 1 amine (or outer) side, 2 acyl side, 3 side chain; on linkers, the order of the positions; unused ones are H or OH. Bridge positions count the residues as written; N and C are the ends. Square brackets hold non-standard residues; d marks the D form. Peptide text beside a SMILES is read from it. Trp(βS-Me,7-OMe) = COc1cccc2c([C@H](C)[C@H](N)C(=O)O)c[nH]c12; Trp(1-CH2COOH) = N[C@@H](Cc1cn(CC(=O)O)c2ccccc12)C(=O)O; X32 = NC(=O)c1ccc([C@@H](O)C(N[*:1])C(=O)[*:2])cc1; Trp(7-CN) = N#Cc1cccc2c(C[C@H](N)C(=O)O)c[nH]c12; Trp(7-Cl) = N[C@@H](Cc1c[nH]c2c(Cl)cccc12)C(=O)O; Phe(4-CONH2) = NC(=O)c1ccc(C[C@H](N)C(=O)O)cc1; Phe(4-COOH) = N[C@@H](Cc1ccc(C(=O)O)cc1)C(=O)O; dPro(4S-NH2) = N[C@@H]1CN[C@@H](C(=O)O)C1; Pip(5R-OH) = O=C(O)[C@@H]1CC[C@@H](O)CN1; X1 = O=C([C@@H]1CC[C@H](N[*:1])C1)[*:2]; X14 = CC(C)CCC[C@H](N[*:1])C(=O)[*:2]; Pip(4-aza) = O=C(O)[C@@H]1CNCCN1; 4Pal = N[C@@H](Cc1ccncc1)C(=O)O; NMeE = CN[C@@H](CCC(=O)O)C(=O)O; Lys(Me) = CNCCCC[C@H](N)C(=O)O; αMeS = C[C@](N)(CO)C(=O)O; Nle = CCCC[C@H](N)C(=O)O; NEtG = CCNCC(=O)O; Sar = CNCC(=O)O
# Columns and labels:
# human TNFR2 ECD protein = biological target: T1, human TNFR2 ECD protein (Homo sapiens, UniProt P20333); experiment: SPR off-target binding (selectivity) to human TNFR2 ECD
# T1 construct: HRV 3C protease cleavage site (C); 6His (C, cleaved yes); made in house; host or cells: Sf21 insect cells (baculovirus), secreted
# T1 sequence (P20333 23-257): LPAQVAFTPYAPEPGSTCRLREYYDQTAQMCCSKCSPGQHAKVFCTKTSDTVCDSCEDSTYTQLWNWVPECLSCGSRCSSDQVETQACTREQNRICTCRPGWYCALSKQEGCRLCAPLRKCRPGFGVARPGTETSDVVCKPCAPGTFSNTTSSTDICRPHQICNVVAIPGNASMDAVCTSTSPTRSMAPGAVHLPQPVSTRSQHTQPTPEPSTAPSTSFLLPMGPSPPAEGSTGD
# Experimental: (§1) B. Procedure for Binding Affinity and Selectivity measured by SPR
# (§2) Affinity and selectivity for hTNFR1 and TNFR2 was determined using SPR. Human TNFR1 or TNFR2 genes (extracellular domain only) were synthesized with a C-terminal Avi-tag, HRV 3C protease cleavage site followed by a 6His-tag for affinity purification. The final gene product was cloned into pBAC™-1 vector (Millipore Sigma) for expression testing in insect cells. Constructs were transfected into Sf21 cells for baculovirus generation followed by protein expression analysis in Sf21 and Tni cell lines. Large scale expression in Sf21 cells was performed using baculovirus infected insect cells (BIICs) infected at a MOI=2.0 grown for 72 h. Target proteins secreted into the media were harvested via centrifugation and concentrated using diafiltration. TNFR was purified by immobilized metal ion affinity chromatography (IMAC) using a Ni-Sepharose HisTrap™ column (Cytiva™). Isolated TNFR had His tag removed using HRV 3C protease followed by additional purification using Ni-NTA chromatography. Biotinylation was performed on Ni-NTA flow-through fractions concentrated to 45 μM and treated with BirA ligase (1:100, μg/μg ratio) in 50 mM Tris pH 7.5, 150 mM NaCl, 50 μM biotin, 10 mM magnesium acetate, 10 mM ATP at 4° C. for 20 h. Final purification of biotin-TNFR and buffer exchange into 20 mM HEPES pH 7.5, 150 mM NaCl was performed using a HiLoad® Superdex® 200 26/60 column (Cytiva™). Highly purified protein was aliquoted and stored at −80° C.
# (§3) The SPR assay uses a Cytiva™ 8K or 8K+ biosensor instrument to measure the kinetics of peptide analytes binding to captured human TNFR1 extracellular domain (ECD) protein; peptide analytes are also evaluated for any off-target binding to human TNFR2 ECD protein in parallel. Recombinant human TNFR1 ECD and human TNFR2 ECD proteins, biotinylated via engineered C-terminal avi-tags, are immobilized to a regenerable streptavidin biosensor chip surface (Cytiva™ Biotin CAPture kit, Series S; cat. #28920234). Peptide analytes binding to immobilized human TNFR1 ECD protein and their subsequent dissociation are conducted in a buffer of 10 mM HEPES pH 7.4, 150 mM NaCl, 3 mM EDTA, 0.05% P20,2% DMSO under laminar flow conditions and measured in response units (RU), which are directly proportional to the accumulated mass on the surface of the biosensor chip; the biosensor chip surface is regenerated via Cytiva™ proprietary methods between the evaluation of each peptide analyte. […] The SPR assay determines the association and dissociation rate constants, kon and koff, for each peptide analyte and, from these values, calculates the binding affinity, […] reported in Table 2.
# [1] = biological target: T2, TNFα-induced NF-κB signal transduction pathway (TNFR1 signaling) in THP-1 cells (Homo sapiens, UniProt P19438); experiment: THP-1 Lucia NF-κB reporter cell assay, inhibition of TNFα-induced NF-κB signaling; format: cell-based; details: THP-1 NF-κB Lucia reporter cells, 10 ng/mL TNFα, 16-18 h, secreted luciferase; read-out: THP-1 IC50
# T2 sequence (P19438 30-455): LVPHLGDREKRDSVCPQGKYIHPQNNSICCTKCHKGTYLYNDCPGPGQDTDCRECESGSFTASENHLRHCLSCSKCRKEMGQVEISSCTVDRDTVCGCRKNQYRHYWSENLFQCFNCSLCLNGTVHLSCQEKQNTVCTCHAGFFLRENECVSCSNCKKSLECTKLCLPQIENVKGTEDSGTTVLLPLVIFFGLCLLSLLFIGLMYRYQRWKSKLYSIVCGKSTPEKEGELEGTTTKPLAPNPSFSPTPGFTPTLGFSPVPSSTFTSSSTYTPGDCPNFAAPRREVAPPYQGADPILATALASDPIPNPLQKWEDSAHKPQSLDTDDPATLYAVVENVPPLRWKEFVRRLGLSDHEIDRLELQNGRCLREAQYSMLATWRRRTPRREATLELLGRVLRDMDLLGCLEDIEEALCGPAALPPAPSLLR
# In short: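 Inhibition of TNFR1-driven NF-κB activation was measured as luminescence of secreted reporter luciferase following overnight (16-18 h) stimulation with 10 ng/mL TNFα.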
# [2] = biological target: T3, human TNFR1 extracellular domain (ECD) protein (Homo sapiens, UniProt P19438); experiment: SPR binding affinity to captured human TNFR1 ECD
# T3 construct: HRV 3C protease cleavage site (C); 6His (C, cleaved yes); made in house; host or cells: Sf21 insect cells (baculovirus), secreted
# T3 sequence (P19438 30-211): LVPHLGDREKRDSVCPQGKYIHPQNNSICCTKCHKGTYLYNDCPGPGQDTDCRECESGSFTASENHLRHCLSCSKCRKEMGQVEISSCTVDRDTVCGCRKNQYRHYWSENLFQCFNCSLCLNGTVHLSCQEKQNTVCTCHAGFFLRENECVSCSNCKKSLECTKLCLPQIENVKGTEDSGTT
# Experimental: as §1, §2, §3
SMILES,Kd (human TNFR2 ECD protein),IC50 [1],Kd [2],"Kd (human TNFR2 ECD protein; biotinylated human TNFR2 ECD on streptavidin chip, read-out: SPR hTNFR2 KD)","Kd ([2]; biotinylated human TNFR1 ECD on streptavidin chip, from kon and koff, read-out: SPR hTNFR1 KD)"
"CNCCCC[C@@H]1NC(=O)[C@@H]2CC[C@@H](C2)NC(=O)[C@H]([C@@H](C)c2c[nH]c3c(OC)cccc23)NC(=O)CN(C)C(=O)[C@H](Cc2ccc(O)cc2)NC(=O)[C@H](Cc2ccc(C(N)=O)cc2)NC(=O)[C@](C)(CO)NC(=O)[C@H](Cc2c[nH]c3c(Cl)cccc23)NC(=O)[C@H](Cc2ccncc2)NC(=O)[C@H](CC(N)=O)NC(=O)[C@H](CCC(=O)O)N(C)C(=O)[C@H](Cc2c[nH]c3ccccc23)NC(=O)[C@@H]2CC[C@@H](O)CN2C(=O)[C@H](Cc2ccncc2)NC1=O [SEQ ID NO. 86] (cyclo([4Pal][Trp(7-Cl)][αMeS][Phe(4-CONH2)]Y[Sar][Trp(βS-Me,7-OMe)][X1][Lys(Me)][4Pal][Pip(5R-OH)]W[NMeE]N))",> 1000 nM,0.5 nM,0.08 nM,–,–
"CCCC[C@@H]1NC(=O)[C@@H]2CC[C@@H](C2)NC(=O)[C@H]([C@@H](C)c2c[nH]c3c(OC)cccc23)NC(=O)CN(C)C(=O)C([C@H](O)c2ccc(C(N)=O)cc2)NC(=O)[C@H](Cc2ccc(C(N)=O)cc2)NC(=O)[C@](C)(CO)NC(=O)[C@H](Cc2c[nH]c3c(C#N)cccc23)NC(=O)[C@H](Cc2ccc(C(=O)O)cc2)NC(=O)[C@H](CC(N)=O)NC(=O)[C@H]2C[C@H](N)CN2C(=O)[C@H](Cc2cn(CC(=O)O)c3ccccc23)NC(=O)[C@@H]2CC[C@@H](O)CN2C(=O)[C@H](Cc2ccncc2)NC1=O (stereo partly drawn) [SEQ ID NO. 87] (cyclo([4Pal][Pip(5R-OH)][Trp(1-CH2COOH)][dPro(4S-NH2)]N[Phe(4-COOH)][Trp(7-CN)][αMeS][Phe(4-CONH2)][X32][Sar][Trp(βS-Me,7-OMe)][X1][Nle]))",–,0.7 nM,–,> 1000 nM,0.02 nM
"COc1cccc2c([C@H](C)[C@@H]3NC(=O)CN(C)C(=O)[C@H](Cc4ccc(O)cc4)NC(=O)[C@H](Cc4ccc(C(N)=O)cc4)NC(=O)[C@](C)(CO)NC(=O)[C@H](Cc4c[nH]c5c(Cl)cccc45)NC(=O)[C@H](Cc4ccc(C(=O)O)cc4)NC(=O)[C@H](CC(N)=O)NC(=O)[C@H](CCC(=O)O)N(C)C(=O)[C@H](Cc4c[nH]c5ccccc45)NC(=O)[C@@H]4CNCCN4C(=O)[C@H](Cc4ccncc4)NC(=O)[C@H](CCCC(C)C)NC(=O)CSC[C@@H](C(N)=O)NC3=O)c[nH]c12 [SEQ ID NO. 93] ({CH2CO}-[X14][4Pal][Pip(4-aza)]W[NMeE]N[Phe(4-COOH)][Trp(7-Cl)][αMeS][Phe(4-CONH2)]Y[Sar][Trp(βS-Me,7-OMe)]C-NH2; thioether N-14)",> 1000 nM,2.7 nM,0.78 nM,–,–
"CCCC[C@@H]1NC(=O)[C@@H]2CC[C@@H](C2)NC(=O)[C@H]([C@@H](C)c2c[nH]c3c(OC)cccc23)NC(=O)CN(C)C(=O)[C@H](Cc2ccc(O)cc2)NC(=O)[C@H](Cc2ccc(C(=O)O)cc2)NC(=O)[C@](C)(CO)NC(=O)[C@H](Cc2c[nH]c3c(Cl)cccc23)NC(=O)[C@H](Cc2ccncc2)NC(=O)[C@H](CC(N)=O)NC(=O)CN(CC)C(=O)[C@H](Cc2c[nH]c3ccccc23)NC(=O)[C@@H]2CNCCN2C(=O)[C@H](Cc2ccncc2)NC1=O [SEQ ID NO. 94] (cyclo([4Pal][Trp(7-Cl)][αMeS][Phe(4-COOH)]Y[Sar][Trp(βS-Me,7-OMe)][X1][Nle][4Pal][Pip(4-aza)]W[NEtG]N))",> 1000 nM,0.8 nM,0.07 nM,–,–
